Test results taken from patent US8211935B2, “Heterocyclic derivatives for modulation of calcium channels” (Vertex Pharmaceuticals Incorporated, priority 2004, dated 2012).

Molecular target: T1, CaV2.2 (Homo sapiens, UniProt Q00975)
T1 construct: expressed in transfected cells; host or cells: HEK293
Assay: VIPR optical membrane potential assay with electrical stimulation
Assay type: cell-based
Conditions: Table 3, biological assay data; read-out: IC50
Method in brief: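 HEK293 cells stably expressing CaV2.2, stained with CC2-DMPE (10 μM final) and oxonol voltage-sensitive dyes, compound added with BaCl2. Membrane potential response evoked by 3-5 s electrical stimulation. Read as background-subtracted 460/580 nm emission ratio, response R=Rf/Ri, normalized to mibefradil positive and no-drug negative controls.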

T1 sequence (Q00975 whole entry): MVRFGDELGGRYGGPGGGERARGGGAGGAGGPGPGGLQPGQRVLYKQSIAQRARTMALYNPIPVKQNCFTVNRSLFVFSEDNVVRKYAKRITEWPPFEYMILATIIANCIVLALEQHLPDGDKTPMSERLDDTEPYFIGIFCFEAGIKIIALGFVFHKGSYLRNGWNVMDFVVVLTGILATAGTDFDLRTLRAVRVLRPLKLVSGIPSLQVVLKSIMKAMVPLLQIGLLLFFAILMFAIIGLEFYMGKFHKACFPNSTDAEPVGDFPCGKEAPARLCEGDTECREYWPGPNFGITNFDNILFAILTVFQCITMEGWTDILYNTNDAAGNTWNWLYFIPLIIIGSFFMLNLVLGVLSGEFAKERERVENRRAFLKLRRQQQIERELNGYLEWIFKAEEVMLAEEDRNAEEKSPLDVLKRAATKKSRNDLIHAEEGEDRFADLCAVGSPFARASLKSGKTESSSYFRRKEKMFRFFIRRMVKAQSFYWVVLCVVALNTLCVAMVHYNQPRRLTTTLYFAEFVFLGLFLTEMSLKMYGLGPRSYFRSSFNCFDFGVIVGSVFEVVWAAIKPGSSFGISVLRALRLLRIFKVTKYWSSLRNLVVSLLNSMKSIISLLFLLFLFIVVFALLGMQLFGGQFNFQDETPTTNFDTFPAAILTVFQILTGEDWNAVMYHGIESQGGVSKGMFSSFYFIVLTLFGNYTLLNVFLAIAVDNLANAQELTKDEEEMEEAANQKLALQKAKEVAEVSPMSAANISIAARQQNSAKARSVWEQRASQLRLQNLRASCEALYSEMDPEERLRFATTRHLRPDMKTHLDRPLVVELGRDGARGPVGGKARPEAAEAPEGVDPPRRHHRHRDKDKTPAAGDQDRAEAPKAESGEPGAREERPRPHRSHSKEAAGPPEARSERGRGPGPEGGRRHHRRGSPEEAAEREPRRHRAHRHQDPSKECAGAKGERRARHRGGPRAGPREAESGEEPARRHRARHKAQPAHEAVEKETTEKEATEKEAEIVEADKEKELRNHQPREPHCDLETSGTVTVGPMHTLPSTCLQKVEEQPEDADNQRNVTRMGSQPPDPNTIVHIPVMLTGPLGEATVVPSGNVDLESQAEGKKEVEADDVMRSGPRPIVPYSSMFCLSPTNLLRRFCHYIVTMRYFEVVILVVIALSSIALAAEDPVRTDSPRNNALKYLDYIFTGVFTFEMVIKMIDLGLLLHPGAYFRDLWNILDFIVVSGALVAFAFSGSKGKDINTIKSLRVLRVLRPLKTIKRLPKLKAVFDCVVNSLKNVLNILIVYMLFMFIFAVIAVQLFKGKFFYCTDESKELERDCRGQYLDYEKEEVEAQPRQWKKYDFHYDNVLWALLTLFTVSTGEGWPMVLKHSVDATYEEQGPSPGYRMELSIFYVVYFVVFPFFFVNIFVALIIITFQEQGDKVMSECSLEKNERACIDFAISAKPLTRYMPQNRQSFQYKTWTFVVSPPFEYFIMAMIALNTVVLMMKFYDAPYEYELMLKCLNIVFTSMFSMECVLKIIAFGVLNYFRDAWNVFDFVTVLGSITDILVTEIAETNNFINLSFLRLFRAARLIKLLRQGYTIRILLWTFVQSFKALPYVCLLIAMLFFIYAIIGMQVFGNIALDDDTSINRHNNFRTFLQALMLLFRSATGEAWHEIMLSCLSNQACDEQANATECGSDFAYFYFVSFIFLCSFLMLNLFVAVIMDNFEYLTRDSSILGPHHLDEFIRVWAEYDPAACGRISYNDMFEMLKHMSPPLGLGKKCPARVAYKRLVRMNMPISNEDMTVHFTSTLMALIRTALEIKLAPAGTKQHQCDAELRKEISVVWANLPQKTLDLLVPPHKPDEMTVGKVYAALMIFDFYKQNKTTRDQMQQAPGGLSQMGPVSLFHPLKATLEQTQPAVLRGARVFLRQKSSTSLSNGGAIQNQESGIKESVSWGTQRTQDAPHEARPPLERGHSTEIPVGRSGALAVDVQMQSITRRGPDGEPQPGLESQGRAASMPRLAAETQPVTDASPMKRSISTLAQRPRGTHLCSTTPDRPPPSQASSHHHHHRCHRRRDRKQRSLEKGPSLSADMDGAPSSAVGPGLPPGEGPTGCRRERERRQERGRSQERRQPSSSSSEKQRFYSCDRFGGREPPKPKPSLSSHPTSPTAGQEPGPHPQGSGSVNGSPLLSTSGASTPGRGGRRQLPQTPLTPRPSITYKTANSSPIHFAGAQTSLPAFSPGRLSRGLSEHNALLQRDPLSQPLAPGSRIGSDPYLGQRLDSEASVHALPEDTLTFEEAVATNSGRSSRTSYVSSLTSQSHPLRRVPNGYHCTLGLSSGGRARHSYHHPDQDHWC
T1 sequence (P54284 whole entry partner): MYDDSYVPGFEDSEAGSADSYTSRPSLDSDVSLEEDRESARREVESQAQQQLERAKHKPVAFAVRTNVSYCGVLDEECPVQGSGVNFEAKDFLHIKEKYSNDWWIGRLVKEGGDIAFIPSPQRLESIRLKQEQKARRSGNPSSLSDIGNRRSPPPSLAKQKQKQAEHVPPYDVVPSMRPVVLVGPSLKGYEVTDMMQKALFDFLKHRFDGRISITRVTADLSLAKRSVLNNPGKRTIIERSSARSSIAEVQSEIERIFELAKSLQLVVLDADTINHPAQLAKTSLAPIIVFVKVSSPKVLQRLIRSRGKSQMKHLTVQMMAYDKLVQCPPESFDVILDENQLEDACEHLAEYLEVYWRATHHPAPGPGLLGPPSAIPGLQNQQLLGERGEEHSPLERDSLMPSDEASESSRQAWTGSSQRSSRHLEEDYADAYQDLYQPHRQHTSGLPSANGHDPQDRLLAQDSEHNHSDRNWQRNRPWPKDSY
T1 sequence (P54289 25-946 partner limits assumed): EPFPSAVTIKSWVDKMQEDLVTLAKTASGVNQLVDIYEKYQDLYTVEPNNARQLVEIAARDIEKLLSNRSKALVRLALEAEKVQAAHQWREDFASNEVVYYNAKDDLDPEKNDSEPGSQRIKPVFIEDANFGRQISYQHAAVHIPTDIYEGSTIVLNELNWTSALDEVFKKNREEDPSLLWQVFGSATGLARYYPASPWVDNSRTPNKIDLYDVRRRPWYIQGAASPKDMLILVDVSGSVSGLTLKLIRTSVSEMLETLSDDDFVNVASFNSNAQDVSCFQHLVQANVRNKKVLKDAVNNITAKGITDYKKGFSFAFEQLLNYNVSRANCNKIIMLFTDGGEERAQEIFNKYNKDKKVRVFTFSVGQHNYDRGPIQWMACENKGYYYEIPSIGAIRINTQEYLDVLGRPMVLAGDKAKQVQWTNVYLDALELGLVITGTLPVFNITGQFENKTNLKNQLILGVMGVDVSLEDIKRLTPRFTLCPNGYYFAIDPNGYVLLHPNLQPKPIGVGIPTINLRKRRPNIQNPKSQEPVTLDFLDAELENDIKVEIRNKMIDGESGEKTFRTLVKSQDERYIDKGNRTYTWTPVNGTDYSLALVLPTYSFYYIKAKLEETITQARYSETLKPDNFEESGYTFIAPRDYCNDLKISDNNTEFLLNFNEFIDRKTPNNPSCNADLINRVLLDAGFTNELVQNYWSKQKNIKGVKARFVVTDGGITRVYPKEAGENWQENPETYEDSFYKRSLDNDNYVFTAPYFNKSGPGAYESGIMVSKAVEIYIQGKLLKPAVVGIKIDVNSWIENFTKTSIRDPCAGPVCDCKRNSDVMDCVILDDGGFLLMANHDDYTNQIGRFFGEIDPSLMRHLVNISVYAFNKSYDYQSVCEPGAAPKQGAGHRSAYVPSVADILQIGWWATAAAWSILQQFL
T1 sequence (P54289 947-1103 partner limits assumed): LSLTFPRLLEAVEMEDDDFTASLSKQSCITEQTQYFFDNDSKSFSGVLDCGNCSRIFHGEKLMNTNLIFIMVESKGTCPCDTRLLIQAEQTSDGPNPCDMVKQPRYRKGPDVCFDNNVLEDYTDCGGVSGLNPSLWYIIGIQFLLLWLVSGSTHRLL

Row | IC50 [µM] | Structure (SMILES)
1 | 5 to 20 | Cc1c(C(=O)NCc2ccccc2)oc2ccc(S(=O)(=O)N3CCC(C)CC3)cc12 [compound 189]
2 | < 5 | CC1CCN(C(=O)c2cc3cc(S(=O)(=O)N4CCCCCC4)ccc3o2)CC1 [compound 190]
3 | < 5 | CCN(CC)C(=O)c1cc2cc(S(=O)(=O)N3CC(C)CC(C)C3)ccc2n1CC(O)CN1CCN(C)CC1 (stereo not drawn) [compound 191]
4 | < 5 | CNC(=O)c1cc2cc(S(=O)(=O)N3CCC(C)CC3)ccc2[nH]1 [compound 192]
5 | 5 to 20 | Cc1c(C(=O)N2CCN(C)CC2)oc2ccc(S(=O)(=O)N3CC(C)CC(C)C3)cc12 (stereo not drawn) [compound 193]
6 | < 5 | CC1CCN(C(=O)c2cc3cc(S(=O)(=O)N4CC(C)CC(C)C4)ccc3[nH]2)CC1 (stereo not drawn) [compound 194]
7 | < 20 | Cc1c(C(=O)N2CCCC(C)C2)oc2ccc(S(=O)(=O)N3CCOCC3)cc12 (stereo not drawn) [compound 195]
8 | < 5 | CCN(CC)C(=O)c1cc2cc(S(=O)(=O)N3CC(C)CC(C)C3)ccc2[nH]1 (stereo not drawn) [compound 196]
9 | < 20 | Cc1c(C(=O)NCCC2=CCCCC2)oc2ccc(S(=O)(=O)N3CCOCC3)cc12 [compound 197]
10 | 5 to 20 | CCOC(=O)N1CCN(C(=O)c2[nH]c3ccc(S(=O)(=O)N4CCC(C)CC4)cc3c2C)CC1 [compound 198]
11 | < 5 | CCN(CC)C(=O)c1oc2ccc(S(=O)(=O)N3CCCC(C)C3)cc2c1C (stereo not drawn) [compound 199]
12 | 5 to 20 | Cc1c(C(=O)NCC2COc3ccccc3O2)oc2ccc(S(=O)(=O)N(C)C3CCCCC3)cc12 (stereo not drawn) [compound 200]
13 | < 5 | Cc1c(C(=O)NCCc2ccccc2)oc2ccc(S(=O)(=O)N3CCCCCC3)cc12 [compound 201]
14 | 5 to 20 | CCN(CC)C(=O)c1oc2ccc(S(=O)(=O)N3CCCCC3)cc2c1C [compound 202]
15 | 5 to 20 | Cc1c(C(=O)NCc2ccccn2)oc2ccc(S(=O)(=O)N3CCC(C)CC3)cc12 [compound 203]
16 | 5 to 20 | Cc1c(C(=O)NC(C)C)oc2ccc(S(=O)(=O)N3CCC(F)(F)CC3)cc12 [compound 204]
17 | 5 to 20 | Cc1c(C(=O)NCC2CCCO2)oc2ccc(S(=O)(=O)N3CCCC(C)C3)cc12 (stereo not drawn) [compound 205]
18 | < 5 | Cc1c(C(=O)N(C)Cc2ccccc2)[nH]c2ccc(S(=O)(=O)N3CCC(C)CC3)cc12 [compound 206]
19 | < 20 | Cc1c(C(=O)NC2CC2)oc2ccc(S(=O)(=O)Nc3ccncc3)cc12 [compound 207]
20 | < 5 | CC1CCN(S(=O)(=O)c2ccc3oc(C(=O)N4CCCCC4C)cc3c2)CC1 (stereo not drawn) [compound 208]

Row | IC50 [µM] | Structure (SMILES)
21 | < 5 | CC1CC(C)CN(S(=O)(=O)c2ccc3[nH]c(C(=O)NC4CC4)cc3c2)C1 (stereo not drawn) [compound 209]
22 | < 20 | Cc1c(C(=O)NC2CC2)oc2ccc(S(=O)(=O)N3CCCC3)cc12 [compound 210]
23 | < 5 | CCOC(=O)N1CCN(C(=O)c2oc3ccc(S(=O)(=O)N4CCCCCC4)cc3c2C)CC1 [compound 211]
24 | < 5 | CCNC(=O)c1oc2ccc(S(=O)(=O)N3CC(C)CC(C)C3)cc2c1C (stereo not drawn) [compound 212]
25 | < 5 | Cc1c(C(=O)N(C)Cc2ccccc2)oc2ccc(S(=O)(=O)N3CCCC(C)C3)cc12 (stereo not drawn) [compound 213]
26 | < 5 | CNC(=O)c1oc2ccc(S(=O)(=O)N3CC(C)CC(C)C3)cc2c1C (stereo not drawn) [compound 214]
27 | 5 to 20 | CCN(CC)S(=O)(=O)c1ccc2oc(C(=O)NC3CCC(C)CC3)c(C)c2c1 (stereo not drawn) [compound 215]
28 | < 5 | CNC(=O)c1[nH]c2ccc(S(=O)(=O)N3CC(C)CC(C)C3)cc2c1C (stereo not drawn) [compound 216]
29 | < 5 | CC1CC(C)CN(S(=O)(=O)c2ccc3[nH]c(C(=O)N(C(C)C)C(C)C)cc3c2)C1 (stereo not drawn) [compound 217]
30 | 5 to 20 | CC(C)NC(=O)c1cc2cc(S(=O)(=O)N3CCCCCC3)ccc2o1 [compound 218]
31 | 5 to 20 | CC1CCN(S(=O)(=O)c2ccc3oc(C(=O)NC4CCCCC4)cc3c2)CC1 [compound 219]
32 | 5 to 20 | CN1CCN(C(=O)c2cc3cc(S(=O)(=O)N4CCCCCC4)ccc3[nH]2)CC1 [compound 220]
33 | 5 to 20 | CCNC(=O)c1[nH]c2ccc(S(=O)(=O)N3CC(C)CC(C)C3)cc2c1C (stereo not drawn) [compound 221]
34 | 5 to 20 | O=C(c1cc2cc(S(=O)(=O)N3CCCCCC3)ccc2o1)N1CCCC1 [compound 222]
35 | < 5 | Cc1c(C(=O)NCCCc2ccccc2)[nH]c2ccc(S(=O)(=O)N3CCC(C)CC3)cc12 [compound 223]
36 | 5 to 20 | Cc1c(C(=O)NC2CC2)oc2ccc(S(=O)(=O)Nc3ccccc3)cc12 [compound 224]
37 | < 5 | CC1CC(C)CN(S(=O)(=O)c2ccc3oc(C(=O)NCCC4CCOCC4)cc3c2)C1 (stereo not drawn) [compound 225]
38 | < 5 | CC1CC(C)CN(C(=O)c2cc3cc(S(=O)(=O)N4CCCCCC4)ccc3o2)C1 (stereo not drawn) [compound 226]
39 | < 5 | Cc1c(C(=O)N2CCCC(C)C2)[nH]c2ccc(S(=O)(=O)N3CC(C)CC(C)C3)cc12 (stereo not drawn) [compound 227]
